The NIST ThermoML archive (doi:10.1021/je060001s)
± gives the expanded uncertainty stated by the source.

How the values were obtained:
[1] = 298.15 K; 101.33 kPa; Liquid
[2] = refractive index (Na D-line) (dimensionless); conditions: 298.15 K; 101.33 kPa; Liquid; Standard Abbe refractometry

| mass density [1] [kg/m3] | refractive index [2] | Structure (SMILES) |
| --- | --- | --- |
| 776.62 ± 0.52 | 1.3418 ± 0.0004 | CC#N [acetonitrile] |
| 892.16 ± 0.37 | 1.3847 ± 0.0004 | CCCC(=O)OC [methyl butanoate] |
| 879.47 ± 0.39 | 1.4048 ± 0.0004 | CCCCCC(=O)OC [methyl hexanoate] |
| 884.8 ± 0.38 | 1.3971 ± 0.0004 | CCCCC(=O)OC [methyl pentanoate] |
